Test: molar heat capacity at saturation pressure
Conditions: Crystal, Small (less than 1 g) adiabatic calorimetry

[Al+3].[Al+3].[O-2].[O-2].[O-2] [aluminum oxide (Al2O3)]
Conditions	molar heat capacity [J/K/mol]
81.94 K	7.415
84.02 K	7.956
87.02 K	8.82
90.02 K	9.678
93.01 K	10.58
96 K	11.53
98.99 K	12.53
101.97 K	13.54
104.94 K	14.57
107.93 K	15.61
110.92 K	16.7
113.92 K	17.8
116.92 K	18.91
119.93 K	20.06
122.94 K	21.18
125.95 K	22.36
128.99 K	23.51
132.02 K	24.71
135.04 K	25.91
138.07 K	27.14
141.09 K	28.39
144.13 K	29.63
147.16 K	30.83
150.2 K	32.05
153.23 K	33.28
156.27 K	34.49
159.31 K	35.7
162.35 K	36.9
165.39 K	38.13
168.44 K	39.32
171.48 K	40.52
174.52 K	41.67
177.6 K	42.88
180.64 K	44.01
183.68 K	45.17
186.72 K	46.24
189.76 K	47.4
192.8 K	48.56
195.84 K	49.61
198.88 K	50.65
201.91 K	51.8
204.95 K	52.77
207.97 K	53.81
211 K	54.84
214.02 K	55.88
217.04 K	56.95
220.05 K	57.85
223.06 K	58.88
226.07 K	59.93
229.07 K	60.93
232.07 K	61.8
235.06 K	62.67
238.05 K	63.55
241.03 K	64.4
244.01 K	65.33
246.98 K	66.26
249.94 K	67.1
252.9 K	67.9
255.85 K	68.71
258.78 K	69.49
261.71 K	70.19
264.63 K	71.03
267.53 K	71.84
270.43 K	72.53

O=C(O)c1ccccc1 [benzoic acid]
Conditions	molar heat capacity [J/K/mol]
4.54 K	0.238
4.75 K	0.256
4.88 K	0.271
5.02 K	0.296
5.16 K	0.31
5.29 K	0.316
5.42 K	0.327
5.53 K	0.343
5.64 K	0.358
5.75 K	0.372
5.85 K	0.388
5.95 K	0.419
6.07 K	0.438
6.22 K	0.468
6.38 K	0.502
6.53 K	0.521
6.7 K	0.571
6.84 K	0.618
6.99 K	0.662
7.14 K	0.7
7.29 K	0.731
7.43 K	0.778
7.57 K	0.823
7.72 K	0.893
7.86 K	0.954
8.01 K	0.978
8.16 K	1.053
8.31 K	1.116
8.46 K	1.163
8.6 K	1.263
8.76 K	1.329
8.91 K	1.384
9.07 K	1.472
9.22 K	1.512
9.38 K	1.58
9.53 K	1.649
9.69 K	1.725
9.84 K	1.858
10 K	1.902
10.21 K	2.036
10.49 K	2.207
10.76 K	2.354
11.04 K	2.56
11.32 K	2.751
11.6 K	2.956
11.88 K	3.123
12.17 K	3.346
12.45 K	3.529
12.75 K	3.819
13.03 K	4.037
13.33 K	4.28
13.62 K	4.532
13.91 K	4.755
14.01 K	4.933
14.31 K	5.137
14.6 K	5.519
14.9 K	5.794
15.19 K	6.073
15.49 K	6.356
15.79 K	6.616
16.09 K	6.911
16.39 K	7.207
16.7 K	7.541
17 K	7.836
17.3 K	8.091
17.6 K	8.409
17.91 K	8.786
18.21 K	9.095
18.52 K	9.471
18.83 K	9.71
19.13 K	10.14
19.44 K	10.4
19.58 K	10.55
19.75 K	10.7
19.89 K	10.86
20.52 K	11.49
21.41 K	12.5
22.31 K	13.49
23.22 K	14.56
24.13 K	15.56
25.05 K	16.55
25.98 K	17.58
26.92 K	18.63
27.86 K	19.67
28.81 K	20.7
29.76 K	21.73
30.71 K	22.75
31.67 K	23.72
32.64 K	24.69
33.6 K	25.68
34.57 K	26.57
35.56 K	27.57
36.53 K	28.47
37.51 K	29.44
38.5 K	30.44
39.89 K	31.71
40.89 K	32.53
41.89 K	33.31
42.89 K	33.99
43.89 K	34.84
44.89 K	35.7
45.89 K	36.42
46.89 K	37.22
47.9 K	38.04
48.9 K	38.77
49.91 K	39.47
50.92 K	40.13
51.94 K	40.84
52.95 K	41.56
53.97 K	42.16
54.98 K	42.68
56.02 K	43.44
57.03 K	44.09
58.06 K	44.66
59.17 K	45.31
60.19 K	45.98
61.22 K	46.55
62.24 K	47.19
63.27 K	47.79
64.3 K	48.32
65.32 K	48.9
66.35 K	49.45
67.38 K	49.97
68.41 K	50.43
69.43 K	50.89
71.27 K	51.74
73.3 K	52.71
75.33 K	53.69
77.36 K	54.68
78.78 K	55.18
79.56 K	55.66
81.07 K	56.41
83.09 K	57.46
85.1 K	58.18
87.11 K	58.97
89.11 K	59.73
91.11 K	60.5
93.12 K	61.27
95.11 K	62.07
97.11 K	62.81
99.11 K	63.57
101.6 K	64.59
104.58 K	65.66
107.58 K	66.69
110.58 K	67.85
113.59 K	69.03
116.61 K	70.18
119.62 K	71.3
122.63 K	72.54
125.65 K	73.61
128.67 K	74.78
131.69 K	75.96
134.72 K	77.09
137.76 K	78.23
140.79 K	79.41
143.83 K	80.49
146.87 K	81.68
149.91 K	82.93
152.95 K	84.03
156 K	85.17
159.05 K	86.37
162.09 K	87.59
165.18 K	88.85
168.23 K	90.02
171.28 K	91.22
174.33 K	92.46
177.38 K	93.64
180.44 K	94.8
183.49 K	96.08
186.54 K	97.26
189.6 K	98.55
192.66 K	99.83
195.71 K	101
198.77 K	102.3
201.83 K	103.6
204.89 K	104.9
208.45 K	106.6
212.52 K	108.2
216.67 K	110.1
220.76 K	111.7
224.85 K	113.5
228.95 K	115.3
237.16 K	119
241.28 K	120.8
245.39 K	122.6
249.52 K	124.4
253.64 K	126.3
257.77 K	128.1
261.9 K	130
266.04 K	132
270.19 K	133.8
274.34 K	135.7
278.49 K	137.6
282.77 K	139.8
286.93 K	141.6
291.09 K	143.5
295.26 K	145.5
299.42 K	147.4
304.38 K	149.7
310.53 K	152.6
317.37 K	155.7
324.19 K	158.8
330.99 K	162

Source: the NIST ThermoML archive (doi:10.1021/acs.jced.8b01075)
